Test results from patent US5776957A, “Nornicotine enantiomers for use as a treatment for dopamine related conditions and disease states” (The University of Kentucky Research Foundation, priority 1996, dated 1998).
Entries after “also recorded” stand apart in the source; their conditions may differ. Like-named read-outs stand apart in the source and are kept apart here.

Columns and labels:
[1] = hemodynamic function in conscious animals; assay type: in vivo; details: behaviorally active doses
[2] = system: [3H]DA-preloaded rat striatal slices (nicotinic receptors); assay: [3H]overflow (DA release) from [3H]DA-preloaded rat striatal slices; assay type: cell-based
[3] = cited from earlier work
[4] = Locomotor activity assay, acute and repeated treatment, S(-) nicotine challenge, saline challenge; assay type: in vivo, rat; details: for behavioral sensitization after repeated administration: 8 injections once every 48 hrs, nicotine 1 mg/kg, R(+) 0.3-10 mg/kg; for cumulated locomotor activity after saline challenge: S(-) experiment; for cross-sensitization to S(-) nicotine: repeated S(-) nornicotine
Experimental: (I mg/kg), norNIC (0.3-10 mg/kg) or R(+) norNIC (0.3-10 mg/kg) was administered peripherally (s.c., 8 injections once every 48 hrs) to groups of rats and locomotor activity was assessed for 50 min immediately after each injection.
In the present study, S(-) nicotine (1 mg/kg), R(+) nornicotine (1-10 mg/kg), S(-) nornicotine (1-10 mg/kg), or vehicle (saline) were administered s.c. to groups of rats (n=6) acutely or repeatedly (8 injections once every 48 hrs). Locomotor activity was measured during 50 min sessions immediately following drug or vehicle administration.
Male Sprague-Hawley rats (225-250 g) from Harlan Laboratories were housed two per cage with free access to food and water.
Activity was recorded automatically in a wooden test-chamber measuring 30×28×43 cm high. The chamber had white walls and a wire mesh floor over pine chip bedding. Two photobeams located 4.5 cm above the floor divided the chamber into four equal quadrants. Electromechanical equipment located in an adjacent room recorded photobeam interruptions automatically. A white noise generator provided an ambient 70 dB background noise in the test room in order to minimize extraneous sounds that might influence the animal's behavior in the test chamber. Rats were habituated to the chamber for 50 min on each of three consecutive days.
On the day immediately after the third habituation session, rats were randomly divided into groups (n=6/group) and were administered s.c. either S(-) nicotine (1 mg/kg), R(+) nornicotine (0.3, 1, 3 and 10 mg/kg), or vehicle (saline) to determine acute drug effects on locomotor activity. In a separate experiment, rats (n=6/group) were administered s.c. either S(-) nicotine (1 mg/kg), S(-) nornicotine (0.3, 1, 3 and 10 mg/kg), or vehicle (saline). To determine the effect of repeated drug administration on locomotor activity, drug or vehicle was administered respectively in the test-room once every 48 hrs for a total of 8 injections. After each injection, locomotor activity was recorded during a 50 min session (five 10-min blocks). On the ninth injection day (48 hrs following injection 8), each group of rats was administered a challenge dose (1 mg/kg) of S(-) nicotine in the test-room, and locomotor activity was determined immediately thereafter. On the tenth injection day, each group of rats was administered saline and locomotor activity recorded to determine potential conditioning effects of the repeated drug administration.
Post hoc analysis of pairwise comparisons was performed with Duncan's New Multiple Range test.

[5] = system: rat striatal slices; details: 0.1-100 μM, 15 min exposure, Dwoskin et al., 1993, cited from earlier work
[6] = rats; cited from earlier work
[7] = system: nicotinic receptor sites in the brain; assay: displacement of nicotine from nicotinic receptor sites in the brain; assay type: binding
[8] = acute S(-) nornicotine 1 and 3 mg/kg
[9] = repeated S(-) nornicotine 3 mg/kg

## c1cncc([C@@H]2CCCN2)c1 [S(-) nornicotine, S-(-) nornicotine]
[1]
  effect on hemodynamic function: no adverse effective on hemodynamic function
[2]; Rattus norvegicus, read-out: EC50 for norNIC stimulated, DHβE-sensitive [3H]overflow
  EC50: 880 ± 310 nM
[2]; concentration-dependent
  evoked [3H]overflow: increase in [^3 H]overflow; also recorded: stereoselective and concentration dependent increase
[2]; concentration-response curve, 60-min exposure
  plateau in response: not observed at concentrations up to 3 mM; also recorded: fail to produce a plateau in response
[2]; neuronal tissue
  release of dopamine from presynaptic terminals: stereoselective and receptor-mediated
[3]
  detection in urine of human smokers: detectable in the urine of human smokers
[4]; S(-) nornicotine 10 mg/kg
  behavioral sensitization after repeated administration: produces behavioral sensitization; also recorded: behavioral sensitization following repeated administration of the high dose of S(-) nornicotine was observed
[4]; S(-) nornicotine 10 mg/kg, listed as S-(-)- norNIC
  behavioral sensitization after repeated administration: produces behavioral sensitization
[4]; 48 hrs after S(-) nicotine challenge
  conditioned response to repeated administration (saline challenge): did not contribute to the observed behavioral sensitization
[4]; 0.3 mg/kg
  cumulated locomotor activity after saline challenge: 352 ± 17 number of photobeam interruptions/50 min session
[4]; 1.0 mg/kg
  cumulated locomotor activity after saline challenge: 333 ± 38 number of photobeam interruptions/50 min session
[4]; 3.0 mg/kg
  cumulated locomotor activity after saline challenge: 394 ± 50 number of photobeam interruptions/50 min session
[4]; 10 mg/kg
  cumulated locomotor activity after saline challenge: 459 ± 26 number of photobeam interruptions/50 min session
[4]; S(-) nornicotine 10 mg/kg, repeated
  locomotor activity after the seventh injection: 364±32 photobeam interruptions
[4]; acute S(-) nornicotine 0.3 mg/kg
  cumulated locomotor activity vs saline-control: significantly increased
[4]; acute S(-) nornicotine 0.3 mg/kg, first 20 min
  locomotor activity time course: significant increase in activity
[4]; acute S(-) nornicotine 10 mg/kg
  cumulated locomotor activity vs saline-control: significant decrease in activity
[4]; acute S(-) nornicotine 10 mg/kg, first 10 min
  locomotor activity time course: decreased during the first 10 min of the session
[4]; [8]
  cumulated locomotor activity vs saline-control: not different from the saline-control group
  locomotor activity time course: not different from the saline-control group
[4]; acute, 0.3 and 10 mg/kg, R(+) experiment
  cumulated locomotor activity vs saline-control: significant decrease in locomotor activity
[4]; acute, 1 and 3 mg/kg, R(+) experiment
  cumulated locomotor activity vs saline-control: not different from control
[4]; acute, S(-) nornicotine 3 mg/kg
  locomotor activity, first 10 min: 121±14 photobeam interruptions
[4]
  cross-sensitization to S(-) nicotine: cross-sensitization to S(-) nicotine was observed
[4]; repeated S(-) nornicotine 0.3 mg/kg
  tolerance to acute stimulatory effect: tolerance to the acute stimulatory effect
[4]; [9]
  locomotor activity, first 10 min: 101±12 photobeam interruptions
  locomotor activity, first 10 min after S(-) nicotine challenge: 134±21 photobeam interruptions
  tolerance to depressant effect: tolerance did not develop
[4]; repeated S(-) nornicotine 10 mg/kg
  tolerance to depressant effect: also observed; also recorded: tolerance developed
[4]; repeated S(-) nornicotine 10 mg/kg, 10-min and 30-min time points
  time course after S(-) nicotine challenge: stimulated significantly
[4]; repeated S(-) nornicotine 10 mg/kg, 20-40 min
  locomotor activity time course: significantly greater than that of the saline-control group
[4]; repeated S(-) nornicotine 10 mg/kg, last administration
  locomotor activity vs saline-control: stimulated significantly above that of the saline-control group
[4]; repeated S(-) nornicotine 0.3-3 mg/kg
  locomotor activity time course: not different from the saline-control group
[4]; repeated S(-) nornicotine 0.3 and 1 mg/kg
  time course after S(-) nicotine challenge: not different from that of the saline-control group
[4]; repeated S(-) nornicotine 0.3 and 1.0 mg/kg
  cumulated locomotor activity after S(-) nicotine challenge: no effect
[4]; repeated S(-) nornicotine 1 and 3 mg/kg
  locomotor activity vs saline-control: not different from that of the saline-control group
[4]; repeated S(-) nornicotine 3 and 10 mg/kg
  cumulated locomotor activity after S(-) nicotine challenge: significantly stimulated locomotor activity
[4]; listed as norNIC
  cross-sensitization to S(-) nicotine: cross-sensitization was observed
[5]
  endogenous DA release: concentration-dependent and Ca+-dependent increase
[5]; listed as S(-) enantiomer of norNIC
  endogenous DA release: concentration-dependent and Ca^++ -dependent increase
[6]
  substitution for nicotine in drug discrimination: substitutes fully for nicotine
[7]
  displacement of nicotine from nicotinic receptor sites: cause displacement of nicotine
